Measured values from ChEMBL document CHEMBL4507257, “Data for DCP probe ABT-100” (2021).

How the values were obtained:
[1] = biological target: Mitogen-activated protein kinase kinase kinase kinase 3 (Homo sapiens) (UniProt Q8IVH8); conditions: Compound concentration 1000.0 nM
[2] = tested on: Tyrosine-protein kinase ABL1 (Homo sapiens), P00519 [H396P]; conditions: Compound concentration 1000.0 nM
[3] = biological target: Phosphatidylinositol 4-kinase beta (Homo sapiens) (UniProt Q9UBF8); conditions: Compound concentration 1000.0 nM
Chain of Phosphatidylinositol 4-kinase beta (Homo sapiens) (Q9UBF8 2-816 limits assumed): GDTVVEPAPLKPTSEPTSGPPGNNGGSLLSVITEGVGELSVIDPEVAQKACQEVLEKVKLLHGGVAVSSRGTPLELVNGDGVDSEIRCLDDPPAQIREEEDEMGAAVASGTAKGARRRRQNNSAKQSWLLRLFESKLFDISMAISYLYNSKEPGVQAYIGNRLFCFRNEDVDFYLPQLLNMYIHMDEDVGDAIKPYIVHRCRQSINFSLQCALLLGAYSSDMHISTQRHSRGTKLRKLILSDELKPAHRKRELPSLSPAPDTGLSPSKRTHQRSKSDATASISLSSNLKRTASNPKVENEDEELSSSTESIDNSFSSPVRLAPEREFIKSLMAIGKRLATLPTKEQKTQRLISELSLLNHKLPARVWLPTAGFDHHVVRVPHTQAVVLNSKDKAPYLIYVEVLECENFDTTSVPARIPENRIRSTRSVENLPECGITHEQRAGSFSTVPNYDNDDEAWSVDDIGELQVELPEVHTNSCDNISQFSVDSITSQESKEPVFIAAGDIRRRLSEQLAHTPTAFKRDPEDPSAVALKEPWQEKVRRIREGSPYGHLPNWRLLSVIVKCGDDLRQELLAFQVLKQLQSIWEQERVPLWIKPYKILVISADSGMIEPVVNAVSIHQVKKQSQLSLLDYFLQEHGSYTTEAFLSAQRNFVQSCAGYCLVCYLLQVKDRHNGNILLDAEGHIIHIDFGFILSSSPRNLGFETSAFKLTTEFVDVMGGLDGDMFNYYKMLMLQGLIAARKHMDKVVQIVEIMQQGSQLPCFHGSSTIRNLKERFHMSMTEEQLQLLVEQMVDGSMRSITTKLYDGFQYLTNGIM

[4] = biological target: Inhibitor of nuclear factor kappa-B kinase subunit alpha (Homo sapiens) (UniProt O15111); conditions: Compound concentration 1000.0 nM
[5] = biological target: Cyclin-dependent kinase-like 3 (Homo sapiens) (UniProt Q8IVW4); conditions: Compound concentration 1000.0 nM
Chain of Cyclin-dependent kinase-like 3 (Homo sapiens) (Q8IVW4 whole entry, looked up): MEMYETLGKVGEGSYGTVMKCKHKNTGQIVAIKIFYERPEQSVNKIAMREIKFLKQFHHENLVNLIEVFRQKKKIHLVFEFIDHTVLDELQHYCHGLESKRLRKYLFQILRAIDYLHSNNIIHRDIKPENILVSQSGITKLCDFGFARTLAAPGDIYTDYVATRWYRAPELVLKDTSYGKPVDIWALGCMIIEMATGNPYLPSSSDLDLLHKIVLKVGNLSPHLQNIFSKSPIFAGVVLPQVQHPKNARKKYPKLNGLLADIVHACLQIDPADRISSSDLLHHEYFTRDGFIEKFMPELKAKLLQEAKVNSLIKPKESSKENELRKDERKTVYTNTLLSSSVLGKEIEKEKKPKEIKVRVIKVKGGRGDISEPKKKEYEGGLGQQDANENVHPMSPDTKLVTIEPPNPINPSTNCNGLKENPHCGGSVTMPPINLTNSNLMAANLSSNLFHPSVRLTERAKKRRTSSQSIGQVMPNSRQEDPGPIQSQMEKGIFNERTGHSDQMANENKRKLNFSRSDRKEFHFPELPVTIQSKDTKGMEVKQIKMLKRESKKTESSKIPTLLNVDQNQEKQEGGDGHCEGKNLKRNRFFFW

[6] = biological target: Membrane-associated tyrosine- and threonine-specific cdc2-inhibitory kinase (Homo sapiens) (UniProt Q99640); conditions: Compound concentration 1000.0 nM
[7] = biological target: Mitogen-activated protein kinase kinase kinase 4 (Homo sapiens) (UniProt Q9Y6R4); conditions: Compound concentration 1000.0 nM
[8] = biological target: Homeodomain-interacting protein kinase 1 (Homo sapiens) (UniProt Q86Z02); conditions: Compound concentration 1000.0 nM
[9] = biological target: Testis-specific serine/threonine-protein kinase 3 (Homo sapiens) (UniProt Q96PN8); conditions: Compound concentration 1000.0 nM
[10] = biological target: Cyclin-dependent kinase 2 homolog (Plasmodium falciparum (isolate 3D7)) (UniProt P61075); conditions: Compound concentration 1000.0 nM
[11] = tested on: Phosphatidylinositol 4,5-bisphosphate 3-kinase catalytic subunit alpha isoform (Homo sapiens), P42336 [C420R]; conditions: Compound concentration 1000.0 nM
[12] = biological target: Tyrosine-protein kinase ZAP-70 (Homo sapiens) (UniProt P43403); conditions: Compound concentration 1000.0 nM
[13] = tested on: Receptor-type tyrosine-protein kinase FLT3 (Homo sapiens), P36888 [UNDEFINED MUTATION]; conditions: Compound concentration 1000.0 nM
Chain of Receptor-type tyrosine-protein kinase FLT3 (Homo sapiens), P36888 [UNDEFINED MUTATION] (P36888 whole entry, looked up, change not shown): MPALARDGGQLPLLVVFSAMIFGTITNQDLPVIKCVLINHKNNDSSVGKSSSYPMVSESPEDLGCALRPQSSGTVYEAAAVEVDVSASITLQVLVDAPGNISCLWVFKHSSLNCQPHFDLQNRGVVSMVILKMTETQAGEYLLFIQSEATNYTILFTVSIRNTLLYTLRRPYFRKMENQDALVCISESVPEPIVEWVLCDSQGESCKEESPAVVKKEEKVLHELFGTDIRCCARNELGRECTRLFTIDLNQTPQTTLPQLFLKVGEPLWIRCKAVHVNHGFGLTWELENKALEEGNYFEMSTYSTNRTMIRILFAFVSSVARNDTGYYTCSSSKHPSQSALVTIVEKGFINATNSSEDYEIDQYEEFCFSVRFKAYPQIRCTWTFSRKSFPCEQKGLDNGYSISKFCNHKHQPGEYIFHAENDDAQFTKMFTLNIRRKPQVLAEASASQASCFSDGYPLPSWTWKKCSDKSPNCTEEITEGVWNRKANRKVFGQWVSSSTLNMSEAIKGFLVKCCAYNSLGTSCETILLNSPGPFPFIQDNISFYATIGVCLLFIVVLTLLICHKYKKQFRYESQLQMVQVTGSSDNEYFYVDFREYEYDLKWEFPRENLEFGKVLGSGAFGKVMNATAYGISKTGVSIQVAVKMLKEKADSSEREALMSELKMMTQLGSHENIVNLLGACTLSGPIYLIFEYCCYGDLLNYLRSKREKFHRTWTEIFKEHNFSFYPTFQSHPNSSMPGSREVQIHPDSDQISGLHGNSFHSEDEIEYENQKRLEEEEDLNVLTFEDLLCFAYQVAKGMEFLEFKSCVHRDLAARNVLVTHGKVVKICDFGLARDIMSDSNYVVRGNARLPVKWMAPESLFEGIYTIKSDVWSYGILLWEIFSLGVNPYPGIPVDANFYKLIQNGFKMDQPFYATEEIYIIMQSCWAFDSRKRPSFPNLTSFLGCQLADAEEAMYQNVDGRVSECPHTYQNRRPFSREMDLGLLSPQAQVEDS

[14] = biological target: Ribosomal protein S6 kinase alpha-1 (Homo sapiens) (UniProt Q15418); conditions: Compound concentration 1000.0 nM
[15] = biological target: Serine/threonine-protein kinase PAK 3 (Homo sapiens) (UniProt O75914); conditions: Compound concentration 1000.0 nM
[16] = biological target: Atypical kinase COQ8A, mitochondrial (Homo sapiens) (UniProt Q8NI60); conditions: Compound concentration 1000.0 nM
[17] = biological target: NUAK family SNF1-like kinase 2 (Homo sapiens) (UniProt Q9H093); conditions: Compound concentration 1000.0 nM
[18] = biological target: Calcium/calmodulin-dependent protein kinase type II subunit gamma (Homo sapiens) (UniProt Q13555); conditions: Compound concentration 1000.0 nM
[19] = biological target: Mitogen-activated protein kinase kinase kinase 15 (Homo sapiens) (UniProt Q6ZN16); conditions: Compound concentration 1000.0 nM
[20] = biological target: Serine/threonine-protein kinase 32B (Homo sapiens) (UniProt Q9NY57); conditions: Compound concentration 1000.0 nM
Chain of Serine/threonine-protein kinase 32B (Homo sapiens) (Q9NY57 whole entry): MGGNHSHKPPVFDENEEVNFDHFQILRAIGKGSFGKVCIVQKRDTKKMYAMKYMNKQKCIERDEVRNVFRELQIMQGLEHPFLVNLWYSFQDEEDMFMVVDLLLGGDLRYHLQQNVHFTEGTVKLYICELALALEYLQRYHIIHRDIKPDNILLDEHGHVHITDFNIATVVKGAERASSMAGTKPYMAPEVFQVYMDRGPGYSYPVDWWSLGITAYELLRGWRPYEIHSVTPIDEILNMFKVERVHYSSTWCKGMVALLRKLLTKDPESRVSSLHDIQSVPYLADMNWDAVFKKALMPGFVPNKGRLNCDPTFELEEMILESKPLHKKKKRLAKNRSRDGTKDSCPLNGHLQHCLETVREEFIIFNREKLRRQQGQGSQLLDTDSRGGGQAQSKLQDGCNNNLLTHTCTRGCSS

[21] = biological target: Interleukin-1 receptor-associated kinase 4 (Homo sapiens) (UniProt Q9NWZ3); conditions: Compound concentration 1000.0 nM
[22] = tested on: Tyrosine-protein kinase ABL1 (Homo sapiens), P00519 [F317L]; conditions: Compound concentration 1000.0 nM
[23] = biological target: Mitogen-activated protein kinase kinase kinase 20 (Homo sapiens) (UniProt Q9NYL2); conditions: Compound concentration 1000.0 nM
Chain of Mitogen-activated protein kinase kinase kinase 20 (Homo sapiens) (Q9NYL2 2-800 limits assumed): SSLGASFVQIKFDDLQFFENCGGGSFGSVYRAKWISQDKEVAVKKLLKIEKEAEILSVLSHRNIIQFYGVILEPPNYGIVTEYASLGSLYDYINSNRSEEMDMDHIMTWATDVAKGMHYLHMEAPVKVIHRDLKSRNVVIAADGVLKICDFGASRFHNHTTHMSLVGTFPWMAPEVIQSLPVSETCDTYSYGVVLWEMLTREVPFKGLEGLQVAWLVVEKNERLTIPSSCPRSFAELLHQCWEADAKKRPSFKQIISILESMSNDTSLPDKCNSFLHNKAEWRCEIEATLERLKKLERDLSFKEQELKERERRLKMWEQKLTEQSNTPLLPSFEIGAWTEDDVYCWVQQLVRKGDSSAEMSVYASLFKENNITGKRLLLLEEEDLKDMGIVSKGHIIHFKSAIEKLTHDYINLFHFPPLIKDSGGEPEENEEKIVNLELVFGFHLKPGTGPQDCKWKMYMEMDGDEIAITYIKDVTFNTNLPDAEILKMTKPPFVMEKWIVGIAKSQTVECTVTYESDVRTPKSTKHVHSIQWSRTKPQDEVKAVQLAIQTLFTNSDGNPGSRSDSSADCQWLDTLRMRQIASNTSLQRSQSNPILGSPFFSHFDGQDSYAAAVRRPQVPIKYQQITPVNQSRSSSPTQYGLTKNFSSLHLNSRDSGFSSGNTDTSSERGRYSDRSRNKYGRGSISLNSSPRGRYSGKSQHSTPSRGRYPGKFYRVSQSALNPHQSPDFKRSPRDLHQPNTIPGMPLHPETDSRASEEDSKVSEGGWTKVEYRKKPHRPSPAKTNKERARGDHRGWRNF

[24] = tested on: Epidermal growth factor receptor (Homo sapiens), P00533 [T790M]; conditions: Compound concentration 1000.0 nM
[25] = biological target: Fibroblast growth factor receptor 1 (Homo sapiens) (UniProt P11362); conditions: Compound concentration 1000.0 nM
Chain of Fibroblast growth factor receptor 1 (Homo sapiens) (P11362 22-822 limits assumed): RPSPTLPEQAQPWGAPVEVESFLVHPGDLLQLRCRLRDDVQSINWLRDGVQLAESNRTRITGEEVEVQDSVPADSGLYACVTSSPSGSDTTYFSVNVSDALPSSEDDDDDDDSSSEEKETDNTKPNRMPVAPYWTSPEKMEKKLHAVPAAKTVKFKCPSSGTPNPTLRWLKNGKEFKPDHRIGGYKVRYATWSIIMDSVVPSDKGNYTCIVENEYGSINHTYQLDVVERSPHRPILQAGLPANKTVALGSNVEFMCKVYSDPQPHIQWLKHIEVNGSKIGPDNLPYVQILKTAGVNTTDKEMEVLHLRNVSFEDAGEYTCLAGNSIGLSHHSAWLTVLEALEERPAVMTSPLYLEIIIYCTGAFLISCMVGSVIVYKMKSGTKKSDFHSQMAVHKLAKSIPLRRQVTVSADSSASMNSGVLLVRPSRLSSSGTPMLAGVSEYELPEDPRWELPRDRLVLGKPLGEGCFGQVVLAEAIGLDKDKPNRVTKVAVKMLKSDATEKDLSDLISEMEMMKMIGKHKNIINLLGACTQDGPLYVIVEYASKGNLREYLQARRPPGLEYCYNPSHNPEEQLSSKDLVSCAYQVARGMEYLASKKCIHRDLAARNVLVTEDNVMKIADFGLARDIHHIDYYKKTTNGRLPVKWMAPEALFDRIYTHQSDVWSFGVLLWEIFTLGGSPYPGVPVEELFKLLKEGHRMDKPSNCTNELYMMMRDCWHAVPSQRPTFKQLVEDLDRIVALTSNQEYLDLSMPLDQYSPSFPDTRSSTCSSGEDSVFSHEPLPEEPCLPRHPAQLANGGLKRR

[26] = biological target: T1, Muscarinic acetylcholine receptor M5 (Homo sapiens) (UniProt P08912); conditions: Compound concentration 10.0 uM
T1 sequence (whole entry): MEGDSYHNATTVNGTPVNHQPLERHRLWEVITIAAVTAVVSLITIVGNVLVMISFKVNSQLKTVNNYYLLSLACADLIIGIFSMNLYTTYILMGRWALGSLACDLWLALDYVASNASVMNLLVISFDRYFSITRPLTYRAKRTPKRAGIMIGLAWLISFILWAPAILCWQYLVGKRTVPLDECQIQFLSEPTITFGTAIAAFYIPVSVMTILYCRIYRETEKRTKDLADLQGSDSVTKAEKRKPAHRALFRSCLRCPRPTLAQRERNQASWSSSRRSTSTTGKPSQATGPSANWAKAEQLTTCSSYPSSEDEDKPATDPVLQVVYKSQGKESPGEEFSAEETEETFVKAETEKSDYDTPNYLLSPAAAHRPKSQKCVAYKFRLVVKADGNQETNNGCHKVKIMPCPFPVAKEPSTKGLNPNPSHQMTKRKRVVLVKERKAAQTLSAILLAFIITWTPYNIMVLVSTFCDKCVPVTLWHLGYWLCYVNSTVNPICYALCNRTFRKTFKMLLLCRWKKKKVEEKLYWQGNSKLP

[27] = biological target: Casein kinase I isoform gamma-1 (Homo sapiens) (UniProt Q9HCP0); conditions: Compound concentration 1000.0 nM
[28] = tested on: Receptor-type tyrosine-protein kinase FLT3 (Homo sapiens), P36888 [UNDEFINED MUTATION]; conditions: Compound concentration 1000.0 nM; remark: listed apart in the source
[29] = biological target: Serine/threonine-protein kinase ULK3 (Homo sapiens) (UniProt Q6PHR2); conditions: Compound concentration 1000.0 nM
[30] = tested on: Epidermal growth factor receptor (Homo sapiens), P00533 [UNDEFINED MUTATION]; conditions: Compound concentration 1000.0 nM
[31] = biological target: Phosphatidylinositol 5-phosphate 4-kinase type-2 beta (Homo sapiens) (UniProt P78356); conditions: Compound concentration 1000.0 nM
[32] = biological target: Ribosomal protein S6 kinase alpha-6 (Homo sapiens) (UniProt Q9UK32); conditions: Compound concentration 1000.0 nM
[33] = biological target: 5-hydroxytryptamine receptor 2B (Homo sapiens) (UniProt P41595); conditions: Compound concentration 10.0 uM
[34] = biological target: Calcium/calmodulin-dependent protein kinase type IV (Homo sapiens) (UniProt Q16566); conditions: Compound concentration 1000.0 nM
Chain of Calcium/calmodulin-dependent protein kinase type IV (Homo sapiens) (Q16566 whole entry): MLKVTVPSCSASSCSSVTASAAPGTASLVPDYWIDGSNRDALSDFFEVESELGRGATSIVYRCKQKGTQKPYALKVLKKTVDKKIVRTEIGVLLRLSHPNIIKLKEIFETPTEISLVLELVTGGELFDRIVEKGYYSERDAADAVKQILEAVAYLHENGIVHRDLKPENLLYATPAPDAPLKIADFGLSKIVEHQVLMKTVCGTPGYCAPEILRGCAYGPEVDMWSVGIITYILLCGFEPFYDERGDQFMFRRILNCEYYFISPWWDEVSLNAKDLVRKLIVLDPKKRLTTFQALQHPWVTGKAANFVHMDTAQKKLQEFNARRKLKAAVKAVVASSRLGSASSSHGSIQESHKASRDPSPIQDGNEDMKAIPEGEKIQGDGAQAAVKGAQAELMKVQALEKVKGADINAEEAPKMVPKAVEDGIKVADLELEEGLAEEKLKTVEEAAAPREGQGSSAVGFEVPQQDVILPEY

[35] = biological target: Proto-oncogene tyrosine-protein kinase ROS (Homo sapiens) (UniProt P08922); conditions: Compound concentration 1000.0 nM
[36] = biological target: Protein-tyrosine kinase 6 (Homo sapiens) (UniProt Q13882); conditions: Compound concentration 1000.0 nM
[37] = biological target: Mitogen-activated protein kinase 13 (Homo sapiens) (UniProt O15264); conditions: Compound concentration 1000.0 nM

Cn1cncc1[C@@](O)(COc1ccc(C#N)cc1-c1ccc(OC(F)(F)F)cc1)c1ccc(C#N)cc1 [A-108]
inactive: residual activity [1] 100% | residual activity [2] 92% | residual activity [3] 80% | residual activity [4] 100% | residual activity [5] 81% | residual activity [6] 100% | residual activity [7] 80% | residual activity [8] 79% | residual activity [9] 100% | residual activity [10] 69% | residual activity [11] 90% | residual activity [12] 100% | residual activity [13] 100% | residual activity [14] 100% | residual activity [15] 91% | residual activity [16] 100% | residual activity [17] 100% | residual activity [18] 98% | residual activity [19] 83% | residual activity [20] 97% | residual activity [21] 80% | residual activity [22] 100% | residual activity [23] 85% | residual activity [24] 68% | residual activity [25] 100% | inhibition [26] 1.23% | residual activity [27] 91% | residual activity [28] 80% | residual activity [29] 78% | residual activity [30] 100% | residual activity [31] 100% | residual activity [32] 94% | inhibition [33] 18.6% | residual activity [34] 100% | residual activity [35] 96% | residual activity [36] 100% | residual activity [37] 90%

Cn1cncc1[C@](O)(COc1ccc(C#N)cc1-c1ccc(OC(F)(F)F)cc1)c1ccc(C#N)cc1 [ABT-100]
inactive: residual activity [1] 100% | residual activity [2] 100% | residual activity [3] 94% | residual activity [4] 86% | residual activity [5] 87% | residual activity [6] 100% | residual activity [7] 90% | residual activity [8] 100% | residual activity [9] 98% | residual activity [10] 77% | residual activity [11] 100% | residual activity [12] 78% | residual activity [13] 98% | residual activity [14] 100% | residual activity [15] 96% | residual activity [16] 92% | residual activity [17] 100% | residual activity [18] 94% | residual activity [19] 90% | residual activity [20] 100% | residual activity [21] 75% | residual activity [22] 100% | residual activity [23] 100% | residual activity [24] 100% | residual activity [25] 62% | inhibition [26] -4.82% | residual activity [27] 90% | residual activity [28] 69% | residual activity [29] 88% | residual activity [30] 93% | residual activity [31] 100% | residual activity [32] 91% | inhibition [33] -5.75% | residual activity [34] 100% | residual activity [35] 89% | residual activity [36] 100% | residual activity [37] 87%
